Laboratory results reported in US9932339B2, “Helquats with heteroaromatic substituents, preparation thereof, and use thereof as G-quadruplex stabilizers” (USTAV ORGANICKE CHEMIE A BIOCHEMIE AV CR, V.V.I., priority 2014, dated 2018).
Read-outs that look alike come from different tables or passages of the source.

Assays:
c-myc protein = assay: Immunodetection of protein c-myc in HGC-27 cell lysates (Western blot); format: cell-based, human; conditions: 50 μmol · l^−1, 24 hour incubation, normalized to β-actin
Experimental: Determination of changes in c-myc protein expression (transcription factor) in cell lysates prepared from tumor cell line HGC-27 after treatment with test helquats (Tab. 7) was carried out by immunodetection after separation of proteins according to their size by gel electrophoresis (SDS-PAGE) and blotting.
To determine the influence helquats on expression of c-myc protein, the cells were cultured under standard conditions and in the exponential growth phase were seeded into flasks at a density of 25,000 cells/cm^2. The next day selected helquats were added at a concentration of 50 μmol·l^−1. After 24 hour incubation, the cell pellets were obtained and, after addition of RIPA buffer with protease inhibitors (PrIC) and phosphatases (PhIC) (for composition see Tab. 8) cell lysates were prepared. 150 μl of RIPA buffer was used for 10^7 cells. Protein concentrations in the lysates were measured by BCA method. Separation of proteins in the lysates was carried out on a 12% denaturing polyacrylamide gel. The separated proteins were transferred to PVDF membrane by Western blotting.
Incubation with primary mouse monoclonal antibody against the protein c-myc (dilution 1:1000 in “SignalBoost” reagent) was carried out overnight at 4° C., and then with the primary mouse anti-β-actin (1:5000 dilution in 5% milk in TBS-T buffer) at room temperature for 2 hours. Subsequently, the secondary horse monoclonal antibody conjugated to horseradish peroxidase (diluted 1:2000 in 5% milk in TBS-T buffer) binding to mouse IgG antibody was applied. C-myc proteins and β-actin bound to the membrane were visualized using detection kit (SuperSignal® West Femto Maximum Sensitivity Substrate, Cat. No. 34095, Thermo Fisher Scientific, Inc., USA) in the chemiluminescence detection system ImageQuant LAS 4000 Mini (Cat. No. 28-9558-13, GE Healthcare Life Sciences, USA). The amount of protein was quantified by densitometry in Quantity One software. The amount of c-myc in the samples was normalized to β-actin, and subsequently related to a control sample.

CCRF-CEM = assay: XTT cytotoxicity/proliferation assay, CCRF-CEM; format: cell-based; conditions: Homo sapiens, CCRF-CEM
Experimental: To assess the antiproliferative effects of the tested substances in vitro, tumor cell line CCRF-CEM derived from acute lymphoblastic leukemia and normal (healthy) HUVEC endothelial cells from umbilical vein were used. Both of these cell lines were cultured under optimal conditions for their growth in the appropriate medium in plastic bottles or plastic Petri dishes of various sizes (TPP, BD Biosciences) at 37° C., 5% CO2 and 95% humidity. HUVEC cells were purchased from BD Biosciences. CCRF-CEM cell line was obtained from ATCC/LGC Standards (American Type Cell Collection).
Suspension cell line CCRF-CEM is a continuous in vitro culture of acute lymphoblastic leukemia. Cell line CCRF-CEM was grown in RPMI 1640 medium (Sigma-Aldrich, cat. No. R8758) supplemented with 2 mmol·l^−1 glutamine (Invitrogen, cat. No. 35050-038), 10% fetal bovine serum (FBS; Sigma-Aldrich, cat. No. F9665), 100 IU/ml penicillin, 100 μg/ml streptomycin (Sigma-Aldrich, cat. No. P0781). Passaging was carried out 2-3 times a week. Population doubling time of CCRF-CEM cells under the used culture conditions is 20 hours.
For testing of the sensitivity of cell lines to studied helquats XTT cytotoxicity/proliferation assay for determination of cell viability was used. This method is based on the ability of metabolically active cells to reduce the yellow tetrazolium salt XTT to orange formazan. The rate of conversion is measured as the increase in absorbance at 492 nm and is proportional to the enzymatic activity of mitochondrial dehydrogenases and thus the number of metabolically active (viable) cells. The output is the IC50 value corresponding to the concentration of the test substance that causes a decrease in the number of viable cells by half (i.e. 50% slowdown of cell division) relative to the control, untreated population. Thus it reflects the effectiveness of the test substance towards the tested cell line.
Cells in exponential growth phase were plated into 96-well microtiter plate at a concentration of 3000 cells per well. Each well contained 90 μl of cell suspension. The following day, 10 μl of 10× concentrated test substances was added. Effect of helquats has been studied in the concentration range 1-100 μmol·l^−1 (or 1, 2.5, 5, 7.5, 10; 15; 25; 50 and 100 μmol·l^−1). In addition to the part of the plate containing the mentioned dilutions of test compounds there were always two control columns present, first column with medium alone (i.e. blank) and the second column with the cells in medium without test compounds (control). Into the blank and control wells the same volume of solvent (water) as the volume of the substances was added. After 72 hours of treatment with substances the measurement of viability was performed according to the manufacturer instructions. Briefly, into each well of a 96-well microtiter plate 50 μl of the prepared working solution of XTT (detection reagent) was added and then the microtiter plate was returned to the CO2 incubator. After 2 hours, the absorbance of each well at 492 nm (reference wavelength 690 nm) was measured using a multifunctional microplate reader (Tecan Genios, Austria).
The results of determination of the viability of cancer and normal cells after treatment with different concentrations of test substances are summarized in Table 9. […] Each concentration of a helquat was tested in triplicates within one IC50 value determination. Each of these IC50 value determinations was repeated in at least three independent experiments. Values above 100 μmol·l^−1 were obtained by extrapolation of data measured in the concentration range 0-100 μmol·l^−1 of helquats.

HUVEC = assay: XTT cytotoxicity/proliferation assay, HUVEC; format: cell-based, human; conditions: Homo sapiens, HUVEC
Experimental: To assess the antiproliferative effects of the tested substances in vitro, tumor cell line CCRF-CEM derived from acute lymphoblastic leukemia and normal (healthy) HUVEC endothelial cells from umbilical vein were used. Both of these cell lines were cultured under optimal conditions for their growth in the appropriate medium in plastic bottles or plastic Petri dishes of various sizes (TPP, BD Biosciences) at 37° C., 5% CO2 and 95% humidity. HUVEC cells were purchased from BD Biosciences. CCRF-CEM cell line was obtained from ATCC/LGC Standards (American Type Cell Collection). Normal human endothelial cells from the umbilical vein are adherent cells, which were grown in plastic Petri dishes coated with collagen I. The culture medium (E-STIMTM; BD Biosciences, cat. […] Then, 5 ml of complete culture media E-STIM™ was added and the cells were centrifuged (180×g, 7 minutes), resuspended and transferred in a desired amount in a new Petri dish with fresh medium. In the experiments cells between passages 3 and 8 (after thawing) were used. Population doubling time of HUVEC cells under the used culture conditions is 38 hours. For testing of the sensitivity of cell lines to studied helquats XTT cytotoxicity/proliferation assay for determination of cell viability was used. This method is based on the ability of metabolically active cells to reduce the yellow tetrazolium salt XTT to orange formazan. The rate of conversion is measured as the increase in absorbance at 492 nm and is proportional to the enzymatic activity of mitochondrial dehydrogenases and thus the number of metabolically active (viable) cells. […] Thus it reflects the effectiveness of the test substance towards the tested cell line. Cells in exponential growth phase were plated into 96-well microtiter plate at a concentration of 3000 cells per well. Each well contained 90 μl of cell suspension. The following day, 10 μl of 10× concentrated test substances was added. […] In addition to the part of the plate containing the mentioned dilutions of test compounds there were always two control columns present, first column with medium alone (i.e. blank) and the second column with the cells in medium without test compounds (control). Into the blank and control wells the same volume of solvent (water) as the volume of the substances was added. After 72 hours of treatment with substances the measurement of viability was performed according to the manufacturer instructions. Briefly, into each well of a 96-well microtiter plate 50 μl of the prepared working solution of XTT (detection reagent) was added and then the microtiter plate was returned to the CO2 incubator. After 2 hours, the absorbance of each well at 492 nm (reference wavelength 690 nm) was measured using a multifunctional microplate reader (Tecan Genios, Austria).

[1] = 72 hours of treatment, read-out: IC50 CCRF CEM
[2] = 72 hours of treatment, values above 100 μmol·l^−1 obtained by extrapolation, read-out: IC50 HUVEC

Row | Structure (SMILES) | c-myc protein expression relative to control (control = 100%) (c-myc protein) | IC50 (CCRF-CEM; [1]) | IC50 (HUVEC; [2]) | IC50 (CCRF-CEM; 72 hours, summary of table 9, read-out: concentrations toxic towards CCRF-CEM cells) | IC50 (HUVEC; 72 hours, summary of table 9, read-out: concentrations non-toxic towards HUVEC cells)
1 | C(=C\c1ccc(-c2cccs2)s1)/c1cc(/C=C/c2ccc(-c3cccs3)s2)[n+]2c(c1)-c1c(ccc3c1-c1cccc[n+]1CC3)CC2.O=S(=O)([O-])C(F)(F)F.O=S(=O)([O-])C(F)(F)F [HTA-C9-16, 2,4-bis((E)-2-([2,2′-bithiophen]-5-yl)vinyl)-6,7,10,11-tetrahydrodipyrido[2,1-a:1′,2′-k][2,9]phenanthroline-5,12-diium trifluoromethanesulfonate] | 32% | 11 to 25 µM | 26 to 50 µM | – | –
2 | C(=C\c1cc2ccccc2o1)/c1cc(/C=C/c2cc3ccccc3o2)[n+]2c(c1)-c1c(ccc3c1-c1cccc[n+]1CC3)CC2.O=S(=O)([O-])C(F)(F)F.O=S(=O)([O-])C(F)(F)F [HTA-C9-17, 2,4-bis((E)-2-(benzofuran-2-yl)vinyl)-6,7,10,11-tetrahydrodipyrido[2,1-a:1′,2′-k][2,9]phenanthroline-5,12-diium trifluoromethanesulfonate] | 44% | 26 to 50 µM | ≥ 51 µM | – | –
3 | C(=C\c1cc2ccccc2[n+]2c1-c1c(ccc3c1-c1cccc[n+]1CCC3)CCC2)/c1ccc(-c2cccs2)s1.O=S(=O)([O-])C(F)(F)F.O=S(=O)([O-])C(F)(F)F [MSC-C9-16, 19-((E)-2-([2,2′-bithiophen]-5-yl)vinyl)-6,7,8,11,12,13-hexahydropyrido[1′″,2′″:1″,2″]azepino[4″,3″:5′,6′]benzo[1′,2′:3,4]azepino[1,2-a]quinoline-5,14-diium trifluoromethanesulfonate] | 36% | ≤ 10 µM | ≥ 100 µM | < 25 µM | > 100 µM
4 | Brc1ccc2c(/C=C/c3cc4ccccc4[n+]4c3-c3c(ccc5c3-c3cccc[n+]3CCC5)CCC4)c[nH]c2c1.O=S(=O)([O-])C(F)(F)F.O=S(=O)([O-])C(F)(F)F [MSC-C9-18, 19-((E)-2-(6-bromo-1H-indol-3-yl)vinyl)-6,7,8,11,12,13-hexahydropyrido[1′″,2′″:1″,2″]azepino[4″,3″:5′,6′]benzo[1′,2′:3,4]azepino[1,2-a]quinoline-5,14-diium trifluoromethanesulfonate] | 31% | 11 to 25 µM | ≥ 51 µM | – | –
5 | Cc1c(/C=C/c2cc3ccccc3[n+]3c2-c2c(ccc4c2-c2cccc[n+]2CCC4)CCC3)sc2ccccc12.O=S(=O)([O-])C(F)(F)F.O=S(=O)([O-])C(F)(F)F [MSC-C10-36, 19-((E)-2-(3-methylbenzo[b]thiophen-2-yl)vinyl)-6,7,8,11,12,13-hexahydropyrido[1′″,2′″:1″,2″]azepino[4″,3″:5′,6′]benzo[1′,2′:3,4]azepino[1,2-a]quinoline-5,14-diium trifluoromethanesulfonate] | 85% | ≤ 10 µM | ≥ 51 µM | – | –
